Experimental data reported in patent US9968616B2, “Discovery of FDA-approved drugs as inhibitors of fatty acid binding protein 4 using molecular docking screening” (The Chinese University of Hong Kong, priority 2014, dated 2018).

Columns and labels:
[1] = tested on: 3T3-L1 cells; experiment: Adipolysis assay (glycerol release) in 3T3-L1 cells; type: cell-based, Mouse; conditions: 10 μM, FIG. 3B; for isoproterenol-stimulated adipolysis: isoproterenol 100 nM for 24 hours
Description: Mouse 3T3-L1 pre-adipocytes were cultured in Dulbecco's Modified Eagle's Medium (DMEM) supplemented with 10% fetal bovine serum, 100 units/ml penicillin and 100 μg/ml streptomycin at 37° C. in a humidified 95% air and 5% CO2 atmosphere. All cell culture reagents were purchased from Invitrogen (Carlsbad, Calif., USA). To initiate 3T3-L1 adipocyte differentiations, the standard differentiation cocktail (250 nM dexamethasone, 100 mM 3-isobutyl-1-methylxanthine and 175 nM human insulin, all purchased from Sigma, St. Louis, Mo.) was added to the medium after 2 days post-confluence. After 2 days, the medium was replaced with fresh complete medium containing insulin. Culture medium was changed every 2 days. Levofloxacin or benzbromarone (BBR) (Sigma, St. Louis, Mo.) was dissolved in DMSO and added to the medium at the beginning of pre-adipocyte differentiations. […] Confluent 3T3-L1 pre-adipocytes (day 0) were stimulated by the differentiation cocktail and cultured for 2 days with culture medium (Control), 10 μM of levofloxacin (Levofloxacin) or 10 μM benzbromarone (BBR). At day 2, the culture medium was collected and the extent of adipolysis was evaluated using Adipolysis Assay Kit (Cayman Chemical: 10009381, MI, US). During adipolysis, triglycerides are hydrolysed to release free fatty acids and glycerol. The amount of glycerol released into the medium as measured by the kit is proportional to the degree of adipolysis. Basal adipolysis and isoproterenol-induced adipolysis were studied. Isoproterenol was included as a positive control for screening pharmaceuticals that are known to regulate the adipolysis. Cells were treated with 100 nM of isoproterenol for 24 hours after the treatment with culture medium, levofloxacin or benzbromarone. Results were repeated at least three times from three independent experiments and presented as mean±SD, n=3 (FIG. 3B). The results were statistically analyzed by one-way ANOVA test. *, P<0.05; compared with the control group. #, P<0.05; compared with the isoproterenol-treated group.

[2] = tested on: 3T3-L1 cells; experiment: Cell viability (MTT assay); type: cell-based, Mouse; conditions: 10 μM, regardless of the isoproterenol treatment, FIG. 3C
[3] = tested on: 3T3-L1 cells; conditions: 10 μM, reference 31; cited from earlier work
[4] = target: human FABP4 (Homo sapiens, UniProt P15090); experiment: FABP4 Inhibitor/Ligand Screening Assay Kit, cell-free ligand displacement fluorescence-labeled probe assay; type: binding; conditions: for inhibition at 10 µM: read-out: % FABP4 inhibition (10 μM)
[5] = tested on: 3T3-L1 cells; experiment: Oil Red O staining (induction of adipogenesis); type: cell-based, Mouse; conditions: 10 μM, days 0-6 of differentiation, versus control group, FIG. 3D
[6] = tested on: PPARγ; experiment: Western blot detection of PPARγ protein level in 3T3-L1 cells; type: cell-based, Mouse; conditions: 10 μM, Day 6, cell lysate, FIG. 3E
Description: Mouse 3T3-L1 pre-adipocytes were cultured in Dulbecco's Modified Eagle's Medium (DMEM) supplemented with 10% fetal bovine serum, 100 units/ml penicillin and 100 μg/ml streptomycin at 37° C. in a humidified 95% air and 5% CO2 atmosphere. All cell culture reagents were purchased from Invitrogen (Carlsbad, Calif., USA). To initiate 3T3-L1 adipocyte differentiations, the standard differentiation cocktail (250 nM dexamethasone, 100 mM 3-isobutyl-1-methylxanthine and 175 nM human insulin, all purchased from Sigma, St. Louis, Mo.) was added to the medium after 2 days post-confluence. After 2 days, the medium was replaced with fresh complete medium containing insulin. Culture medium was changed every 2 days. Levofloxacin or benzbromarone (BBR) (Sigma, St. Louis, Mo.) was dissolved in DMSO and added to the medium at the beginning of pre-adipocyte differentiations.
As in the above Oil Red O Staining assay, cells were harvested on Day 6 and the total protein was collected for western blotting to estimate the PPARγ protein level in the treated 3T3-L1 cells. […] Specific bands were detected using […] (BCIP) and nitro blue tetrazolium (NBT) system (Bio-Rad, Hercules, Calif.) and photographed (FIG. 3E). […]

human FABP4, sequence (P15090 whole entry): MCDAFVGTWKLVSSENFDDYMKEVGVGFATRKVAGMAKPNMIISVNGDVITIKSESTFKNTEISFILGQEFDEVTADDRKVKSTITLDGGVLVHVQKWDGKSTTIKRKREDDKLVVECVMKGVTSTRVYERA

inhibition at 10 µM [4] | Compound | basal adipolysis [1] | isoproterenol-stimulated adipolysis [1] | proliferation/viability of 3T3-L1 cells (cytotoxicity) [2] | also measured
 | CCc1oc2ccccc2c1C(=O)c1cc(Br)c(O)c(Br)c1 [BBR, benzbromarone] | inhibitory effects were also observed | inhibitory effects were also observed | not affected | adipolysis (literature report) [3]: inhibits the adipolysis
70 ± 12.2% | C[C@H]1COc2c(N3CCN(C)CC3)c(F)cc3c(=O)c(C(=O)O)cn1c23 [Levofloxacin, (S)-9-fluoro-2,3-dihydro-3-methyl-10-(4-methylpiperazin-1-yl)-7-oxo-7H-pyrido[1,2,3-de]-1,4-benzoxazine-6-carboxylic acid] | inhibited | inhibited | not affected | IC50 ([4]; dose-response, Prism 5, read-out: IC50 FABP4 activity inhibition): 5.83 µM; lipid accumulation (red dots, Oil Red O) [5]: did not promote lipid accumulation; protein expression of PPARγ [6]: did not increase
5.12 ± 6.9% | Cc1nc2n(c(=O)c1CCN1CCC(c3noc4cc(F)ccc34)CC1)CCCC2O (stereo not drawn) [Paliperidone] |  |  |  | 
57.5 ± 12.2% | N[C@@H]1[C@H]2CN(c3nc4c(cc3F)c(=O)c(C(=O)O)cn4-c3ccc(F)cc3F)C[C@@H]12 [Trovafloxacin] |  |  |  | 

Compound | inhibition at 10 µM [4] | basal adipolysis [1] | isoproterenol-stimulated adipolysis [1] | proliferation/viability of 3T3-L1 cells (cytotoxicity) [2] | also measured
O=c1[nH]c2ccccc2n1C1CCN(CCCC(c2ccc(F)cc2)c2ccc(F)cc2)CC1 [Pimozide] | 47 ± 11.3% |  |  |  | 
Cc1nc2n(c(=O)c1CCN1CCC(c3noc4cc(F)ccc34)CC1)CCCC2 [Risperidone] | 1.64 ± 12.9% |  |  |  | 
